This assay concerns γH2AX. In words: Confocal immunofluorescence of γH2AX, HeLa. Format: cell-based, human. Conditions: HeLa expressing EGFP-H2AX (1–35) vs EGFP, Adriamycin-treated. The procedure: Cells were plated onto chamber slides one day before treatment. Following treatment of cells with respective compounds, the adherent cells were fixed with 5% formaldehyde for 10 min and then washed with phosphate buffered saline (PBS). Samples were blocked (0.5% NP-40, 5% milk powder, 1% fetal bovine serum) for 30 min. After a single wash with PBS, cells were incubated with primary antibodies for 45 to 60 min. Coverslips were washed with PBS and then incubated with secondary antibodies for another 45 to 60 min. They were then washed with PBS and mounted with 0.1 μg/mL 4′,6′-diamidino-2-phenylindole (DAPI) containing mounting solution. […]
Our next objective was to analyze the biological significance of the CARP-1–H2AX interaction in cells. […] Next, we measured activation of caspases as an apoptosis readout in cells expressing myc-His-tagged wild-type CARP-1 or CARP-1 (Δ600–650) proteins that were either untreated or treated with Adriamycin or CFM compounds as detailed in Section 2. We utilized a lower, 4–5 μM dose of Adriamycin or CFM compounds because a 10 μM Adriamycin dose caused interference in signal output/readout in this particular assay, likely due to background fluorescence that is emitted by higher dose of Adriamycin. […]

No end group written: not given here.

Turning to “EGFP-H2AX (1–35): EGFP-tagged fusion protein stably expressed in MDA-MB-468 and HeLa sublines (MSGRGKTGGKARAKAKSRSSRAGLQFPVGRVHRLL; also: EGFP fusion, end not given here; UniProt P16104 1-35, looked up, fragment)”, the “nuclear presence of γH2AX” value was “increased nuclear presence of γH2AX”.

Source of the values: article PMC6406907, “A H2AX–CARP-1 Interaction Regulates Apoptosis Signaling Following DNA Damage” (Cancers, 2019).
